Experimental data as given in US20250388554A1, “ANTIBACTERIAL COMPOUNDS, METHOD OF PRODUCTION AND USE THEREOF” (priority 2024, published 2025).
In brackets after ≈: the same amount, converted by molar mass.

Assays:
[1] = tested on: drug resistant clinical isolate S7 (Resistant to INH); test: Resazurin assay (REMA) / alamarBlue MIC; type: cell-based; conditions: Mycobacterium tuberculosis, read-out: MIC99 (S7)
[2] = tested on: drug resistant clinical isolate S6 (Resistant to INH+Rifampicin); test: microbe, parasite or virus in culture; type: cell-based; conditions: Mycobacterium tuberculosis, read-out: MIC99 (S6)

Row | Structure (SMILES) | MIC99 [1] [µM] | MIC99 [2] [µM]
1 | CC(N)c1ncnn1C (stereo not shown) [SF1, 1-(2-methyl-1,2,4-triazol-3-yl)ethanamine] | 250 (≈ 31.5 µg/mL) | 
2 | CC(C)C(N)c1ncnn1C (stereo not shown) [SF2, 2-methyl-1-(2-methyl-1,2,4-triazol-3-yl)propan-1-amine] | 125 (≈ 19.3 µg/mL) | 125 (≈ 19.3 µg/mL)
3 | NCCSc1ncn[nH]1 [SF3, 2-(1H-1,2,4-triazol-5-ylsulfanyl)ethanamine] | 250 (≈ 36.1 µg/mL) | 
